Reference: US10596169B2, “Cancer treatment with combination of plinabulin and taxane” (BeyondSpring Inc., priority 2013, dated 2020)

What was measured:
[1] = mouse, in vivo
Protocol: Female nude mice (Hsd: Athymic Nude-Foxn1^nu) between 5 and 6 weeks of age weighing approximately 20 grams were obtained from Harlan, Inc. (Madison, Wis.). MV522 is a conventional human NSC metastatic lung tumor cell line (U.S. Pat. No. 7,700,615 or 7,629,380). Animals were injected subcutaneously (SC) with approximately 1×10^7 MV522 cells harvested from tissue culture. When tumors grew to approximately 105 cubic millimeters (mm^3) in size (3 days following implantation), animals were pair-matched by tumor size into treatment and control groups; each treatment group contained eight mice. Animals were ear-tagged and followed individually throughout the experiment.
Initial doses were administered on Day 1 following pair-matching. The experiment was carried out as a tumor growth inhibition (TGI) and tumor growth delay (TGD) study. Group 1 endpoint was when tumor volume reached 1.2 cm^3 (TGI) and the treated groups endpoint was when each individual animal's tumor volume reached 1.5 cm^3 (TGD). […] To serve as negative controls, NPI-2358 vehicle and docetaxel vehicle were injected IP on a 2×WKLY×3 schedule and IV on a Q2D×3 schedule, respectively. Docetaxel was administered by intravenous (IV) injection via tail vein at 15 mg/kg once every other day for three treatments (Q2D×3) or at 25 mg/kg on a Q7D×3 schedule (every 7 day for three treatment). Docetaxel and docetaxel vehicle were administered two hours prior to NPI-2358 vehicle and NPI-2358, respectively, in Groups 7-9 and 12-14. For Groups 10, 11, 15, and 16, NPI-2358 was given two hours prior to docetaxel.
Individual and group mean weights ±SD and percent weight change were recorded twice weekly until study completion beginning Day 1. Group weights on Day 42 and weight nadir values are reported.
Animals were observed twice weekly for general moribundity and daily for mortality.

[2] = system: MV522 human non-small cell lung tumor xenograph model; experiment: Example 2: MV522 xenograft, NPI-2358 1, 4 or 24 h after docetaxel (TGI/TGD); assay type: in vivo, athymic nu/nu mice; settings: for MDS day +/− SD: endpoint 1.0 cm^3
Protocol: In vivo evaluation of plinabulin in combination with docetaxel in the MV522 human non-small cell lung tumor xenograph model in athymic nu/nu mice: schedule of drug administration
The objective of the example was to evaluate the potential additive or synergistic effects of plinabulin (NPI-2358) in combination with docetaxel by administering NPI-2358 at various time points (1 h, 4 h, or 24 h) after docetaxel in the MV522 model. Significant endpoints for this experiment included mean tumor growth inhibition (TGI) or regression, tumor growth delay (TGD) in large tumor, weight loss, and mortality.
(§1) Female nude mice (Hsd: Athymic Nude-Foxn1^nu) between 5 and 6 weeks of age weighing approximately 20 grams were obtained from Harlan, Inc. (Madison, Wis.). Animals were injected subcutaneously (SC) with approximately 1×10^7 MV522 cells harvested from tissue culture (1:1 matrigel:media). When tumors grew to approximately 100 cubic millimeters (mm^3) in size, animals were pair-matched by tumor size into treatment and control groups. Animals were ear-tagged and followed individually throughout the experiment.
(§2) Initial doses were administered on Day 1 following pair-matching. The experiment was carried out as both a tumor growth inhibition (TGI) and tumor growth delay (TGD) study. For TGI, the endpoint was when the average tumor volume of Group 1 reached 1.2 cm^3. For TGD, the endpoint was reached when each individual animal's tumor volume reached 1.0 cm^3. A 10 mg/ml stock vial of docetaxel was diluted in 0.9% saline on each day of dosing and administered intravenously (IV).
Same as in Example 1. This arm of the study was ended on Day 80 or 53 at the sponsor's request. Long-term survivors (animals not reaching the tumor volume endpoint by the preset time period (LTS)) were assigned an IDS value of the last study day (Day 80) and included in these calculations.
For comparison of activity with standard agent(s), gross or net log10 cell-kill values were converted to an arbitrary activity rating below: […]

[3] = Example 2: animal weight and drug toxicity in MV522 xenograft mice; assay type: in vivo, athymic nu/nu mice
Protocol: as §1, §2
Individual and group mean weights ±SD and percent weight change were recorded twice weekly until study completion beginning Day 1. Group weights through Day 24 or 53 and weight nadir values are reported.

[4] = G2: docetaxel 15 mg/kg IV + NPI-2358 vehicle 1 h after
[5] = G3: docetaxel 15 mg/kg IV + NPI-2358 vehicle 4 h after
[6] = G4: docetaxel 15 mg/kg IV + NPI-2358 vehicle 24 h after
[7] = G11: docetaxel 25 mg/kg IV + NPI-2358 vehicle 1 h after
[8] = G12: docetaxel 25 mg/kg IV + NPI-2358 vehicle 4 h after
[9] = G13: docetaxel 25 mg/kg IV + NPI-2358 vehicle 24 h after

## CC(=O)O[C@@]12CO[C@@H]1C[C@H](O)[C@@]1(C)C(=O)[C@H](O)C3=C(C)[C@@H](OC(=O)[C@H](O)[C@@H](NC(=O)OC(C)(C)C)c4ccccc4)C[C@@](O)([C@@H](OC(=O)c4ccccc4)[C@H]21)C3(C)C [Docetaxel, docetaxel]
[1]
  Animal weight loss: significant animal weight loss was observed
[2]; [4]
  % TGI: 79%
  Final tumor volume (Day 24) mean +/− SEM: 337 +/− 29
  Log10 cell kill: 0.6
  T-C (tumor growth delay): 14
  MDS day +/− SD: 38 ± 3 days
[2]; [5]
  % TGI: 81%
  Final tumor volume (Day 24) mean +/− SEM: 313 +/− 23
  Log10 cell kill: 0.7
  T-C (tumor growth delay): 18
  MDS day +/− SD: 42 ± 6 days
[2]; [6]
  % TGI: 80%
  Final tumor volume (Day 24) mean +/− SEM: 325 +/− 41
  Log10 cell kill: 0.6
  T-C (tumor growth delay): 16
  MDS day +/− SD: 40 ± 7 days
[2]; [7]
  # of animals with tumor regression (% TR (#)): 7
  % TGI: 104%
  % TR: 42%
  Final tumor volume (Day 24) mean +/− SEM: 69 +/− 10
  Log10 cell kill: 1.6
  T-C (tumor growth delay): 39
  MDS day +/− SD: 63 ± 10 days
[2]; [8]
  # of animals with tumor regression (% TR (#)): 7
  % TGI: 104%
  % TR: 45%
  Final tumor volume (Day 24) mean +/− SEM: 65 +/− 9
  Log10 cell kill: 1.3
  T-C (tumor growth delay): 32
  MDS day +/− SD: 56 ± 4 days
[2]; [9]
  # of animals with tumor regression (% TR (#)): 7
  % TGI: 103%
  % TR: 55%
  Final tumor volume (Day 24) mean +/− SEM: 72 +/− 14
  Log10 cell kill: 1.4
  T-C (tumor growth delay): 35
  MDS day +/− SD: 59 ± 10 days
[3]; [4]
  Final weight - Day 24 % change: +13%
  Final weight - Day 24 AVG +/− SD: 22 ± 1 g
  Weight nadir % change: −14%
  Weight nadir day: 10
[3]; [5]
  Final weight - Day 24 % change: +12%
  Final weight - Day 24 AVG +/− SD: 23 ± 2 g
  Weight nadir % change: −10%
  Weight nadir day: 10
[3]; [6]
  Final weight - Day 24 % change: +17%
  Final weight - Day 24 AVG +/− SD: 23 ± 2 g
  Weight nadir % change: −10%
  Weight nadir day: 10
[3]; [7]
  Final weight - Day 24 % change: −10%
  Final weight - Day 24 AVG +/− SD: 18 ± 2 g
  Weight nadir % change: −13%
  Weight nadir day: 17
[3]; [8]
  Final weight - Day 24 % change: −11%
  Final weight - Day 24 AVG +/− SD: 17 ± 2 g
  Weight nadir % change: −14%
  Weight nadir day: 10
[3]; [9]
  Final weight - Day 24 % change: −12%
  Final weight - Day 24 AVG +/− SD: 17 ± 3 g
  Weight nadir % change: −20%
  Weight nadir day: 17
